This is an account of results in patent US10406246B2, “Double-labeled probe for molecular imaging and use thereof” (DEUTSCHES KREBSFORSCHUNGSZENTRUM, priority 2013, dated 2019).

As usually defined, the IC50 is the concentration at which inhibition is half-maximal. A high value points to a need for much substance.

The target of data set [1] is T1, PSMA (Homo sapiens, UniProt Q04609).
T1 construct: host or cells: LNCaP cells
Kind of data set: in vitro competitive cell binding assay on LNCaP cells against 68Ga-labeled [Glu-urea-Lys(Ahx)]2-HBED-CC. Conditions: 12 concentrations of analyte 0-5000 nM, mean of three experiments. On the procedure:
The competitive cell binding assay and internalization experiments were performed as described previously (Eder et al. 2012). Briefly, the respective cells (10^5 per well) were incubated with the […] (^68Ga-labeled [Glu-urea-Lys(Ahx)]2-HBED-CC (Schafer et al. 2012)) in the presence of 12 different concentrations of analyte (0-5000 nM, 100 μL/well). After incubation, washing was carried out using a multiscreen vacuum manifold (Millipore, Billerica, Mass.). Cell-bound radioactivity was measured using a gamma counter (Packard Cobra II, GMI, Minnesota, USA). The 50% inhibitory concentration (IC50) was calculated by fitting the data using a nonlinear regression algorithm (GraphPad Software). Experiments were performed three times.
The competitive cell binding assay and internalization experiments were performed as described previously (Eder et al., 2012). Briefly, the respective cells (10^5 per well) were incubated with the radioligand (^68Ga-labeled [Glu-urea-Lys(Ahx)]2-HBED-CC (Schäfer et al., 2012)) in the presence of 12 different concentrations of analyte (0-5000 nM, 100 μL/well). After incubation, washing was carried out using a multiscreen vacuum manifold (Millipore, Billerica, Mass.). Cell-bound radioactivity was measured using a gamma counter (Packard Cobra II, GMI, Minnesota, USA). […]

For data set [2], the system named is PSMA positive LNCaP tumors. Kind of data set: organ distribution in LNCaP tumor bearing xenografts. Type of data set: in vivo, BALB/c nu/nu mice. Conditions: 68Ga-labeled, 1 h post injection; for Organ distribution, Blood, Mean / Organ distribution, Brain, Mean / Organ distribution, Heart, Mean / Organ distribution, Intestine, Mean / Organ distribution, Kidney, Mean / Organ distribution, Liver, Mean / Organ distribution, Lung, Mean / Organ distribution, Muscle, Mean / Organ distribution, Spleen, Mean / Organ distribution, Tumor (tumor uptake), Mean: 0.06 nmol, tail vein, n=3; for distribution profile in healthy organs: both compounds compared with each other; for Organ distribution, Tumor (tumor uptake), Mean: PSMA positive LNCaP tumors. On the procedure: 7- to 8-week-old male BALB/c nu/nu mice (Charles River Laboratories) were subcutaneously inoculated into the right trunk with 5×10^6 cells of LNCaP (in 50% Matrigel; Becton Dickinson, Heidelberg, Germany). The tumors were allowed to grow until approximately 1 cm^3 in size. The radiolabeled compounds were injected into the tail vein (approx. 1 MBq per mouse; 0.06 nmol). At 1 h after injection the animals were sacrificed. Organs of interest were dissected, blotted dry, and weighed. The radioactivity was measured using a gamma counter and calculated as % ID/g.

Data set [3] concerns LNCaP tumor. Kind of data set: comparative PET imaging of 68Ga-labeled PSMA-HBED-CC conjugates. Conditions: 1 hour post injection, LNCaP tumor-bearing nude mice. Type of data set: in vivo. Here is the method: The ^68Ga-labeled compounds PSMA-HBED-CC-FITC (the compound depicted above), PSMA-Ahx-HBED-CC-cyanine 5.5 (the compound depicted above, of which the mass was determined by mass spectrometry as being M(calculated)=1642.98; M(found)=1642.7) and PSMA-Ahx-HBED-CC (the corresponding compound without cyanine 5.5) and were injected into an LNCaP tumor-bearing nude mice. One hour post injection, […] was performed.

The subject of data set [4] is LNCaP cells. The data set is described as follows: specific cell uptake, cell surface binding and internalization. Type of data set: cell-based, human. Conditions: 68Ga-labeled. Here is the method:
To determine the specific cell uptake and internalization, 10^5 cells were seeded in poly-L-lysine coated 24-well cell culture plates 24 h before incubation. After washing, the cells were incubated with 25 nM of the radiolabeled compounds for 45 min at 37° C. and at 4° C., respectively. Specific cellular uptake was determined by competitive blocking with 2-(phosphonomethyl)pentanedioic acid (500 μM final concentration, PMPA, Axxora, Loerrach, Germany). Cellular uptake was terminated by washing 4 times with 1 mL of ice-cold PBS. Cells were subsequently incubated twice with 0.5 mL glycine-HCl in PBS (50 mM, pH=2.8) for 5 min to remove the surface-bound fraction. The cells were washed with 1 mL of ice-cold PBS and lysed using 0.3 N NaOH (0.5 mL). The surface-bound and the internalized fractions were measured in a gamma counter. The cell uptake was calculated as percent of the initially added radioactivity bound to 10^6 cells [% ID/10^6 cells].

Data set [5] relates to LNCaP tumor. Kind of data set: comparative organ distribution versus Banerjee reference compounds. Type of data set: in vivo. Conditions: 1 hour post injection, LNCaP tumor-bearing nude mice. On the procedure: PSMA-Ahx-HBED-CC-FITC (as shown above) was compared with a reference compound published by Banerjee et al. (Banerjee et al., 2011, Angew Chem Int Ed Engl. 50(39):9167-9170, page 6, scheme 1, final product) and the corresponding compound without the fluorescent dye IRDye800CW bearing a free amino group of the lysyl moiety the dye IRDye800CW can be bound to. These compounds were injected into LNCaP tumor-bearing nude mice.

SMILES strings stand for the structures.

T1 sequence (Q04609 whole entry): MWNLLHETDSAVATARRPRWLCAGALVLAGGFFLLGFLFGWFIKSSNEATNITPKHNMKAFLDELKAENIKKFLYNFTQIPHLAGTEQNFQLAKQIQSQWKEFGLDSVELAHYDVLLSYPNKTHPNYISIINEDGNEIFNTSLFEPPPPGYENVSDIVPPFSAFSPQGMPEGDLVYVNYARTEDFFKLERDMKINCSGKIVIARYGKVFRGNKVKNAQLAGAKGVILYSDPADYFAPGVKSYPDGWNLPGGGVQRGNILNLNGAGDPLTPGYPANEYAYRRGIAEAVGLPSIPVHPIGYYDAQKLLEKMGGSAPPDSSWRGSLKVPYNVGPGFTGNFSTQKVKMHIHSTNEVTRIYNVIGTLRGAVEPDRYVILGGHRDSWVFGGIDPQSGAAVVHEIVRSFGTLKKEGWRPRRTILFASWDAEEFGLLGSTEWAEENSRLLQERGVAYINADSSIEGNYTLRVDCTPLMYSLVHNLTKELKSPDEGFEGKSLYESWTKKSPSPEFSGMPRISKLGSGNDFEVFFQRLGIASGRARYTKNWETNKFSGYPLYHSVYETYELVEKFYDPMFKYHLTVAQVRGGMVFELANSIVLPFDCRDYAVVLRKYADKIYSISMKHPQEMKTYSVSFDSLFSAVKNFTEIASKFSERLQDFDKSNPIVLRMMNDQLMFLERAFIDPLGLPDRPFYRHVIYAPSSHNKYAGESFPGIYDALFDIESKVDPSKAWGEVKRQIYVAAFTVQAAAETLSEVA

As for `O=C(O)CCc1ccc(O)c(CN(CCN(CC(=O)O)Cc2cc(CCC(=O)NCCCCCC(=O)NCCCC[C@H](NC(=O)N[C@@H](CCC(=O)O)C(=O)O)C(=O)O)ccc2O)CC(=O)O)c1` [Glu-urea-Lys(Ahx)-HBED-CC, reference compound], the IC50 in data set [1] stood at 0.00982 ± 0.00126 µM. In data set [2], the “Organ distribution, Blood, Mean” value turned out to be 0.53 % ID/g; the “Organ distribution, Brain, Mean” value was determined as 0.40 % ID/g; the “Organ distribution, Heart, Mean” value was 0.83 % ID/g; the “Organ distribution, Intestine, Mean” value is listed as 1.14 % ID/g. Moreover, in data set [2], the “Organ distribution, Kidney, Mean” value is reported as 139.44 % ID/g; the “Organ distribution, Liver, Mean” value worked out at 1.43 % ID/g; the “Organ distribution, Lung, Mean” value worked out at 2.36 % ID/g; the “Organ distribution, Muscle, Mean” value is given as 1.00 % ID/g. Besides, in data set [2], the “Organ distribution, Spleen, Mean” value was determined as 17.88 % ID/g; the “distribution profile in healthy organs” value was “comparable”; the “Organ distribution, Tumor (tumor uptake), Mean” value (from here on “Organ distribution, Tumor”) was 4.89±1.34 % ID/g. Also, the “Organ distribution, Tumor” value in data set [2] (listed as Glu-urea-Lys-HBED-CC) stood at 4.89 % ID/g. Besides, the “distribution of radioactivity and tumor uptake (PET imaging)” value (from here on “distribution … (PET imaging)”) in data set [3] was “comparable distribution of radioactivity and tumor uptake”.

Turning to `O=C(O)CCC(NC(=O)NC(CCCCNC(=O)CCc1ccc(O)c(CN(CCN(CC(=O)O)Cc2cc(CCC(=O)NCCOCCOCCNC(=S)Nc3ccc4c(c3)C(=O)OC43c4ccc(O)cc4Oc4cc(O)ccc43)ccc2O)CC(=O)O)c1)C(=O)O)C(=O)O` (centres unmarked) [Glu-urea-Lys-HBED-CC-Fluorescein], the 50% inhibitory concentration (IC50) in data set [1] turned out to be 0.0111 ± 0.00116 µM. Further, the “internalization by LNCaP cells” value in data set [4] (25 nM, 45 min, competitive blocking with 500 μM 2-PMPA (P<0.001)) is “specifically internalized”. Moreover, the “cell uptake and internalization profile versus Glu-urea-Lys-HBED-CC” value in data set [4] (LNCaP cells) was “not considerably changed”. In data set [2], the “Organ distribution, Blood, Mean” value turned out to be 1.34 % ID/g; the “Organ distribution, Brain, Mean” value is given as 0.31 % ID/g; the “Organ distribution, Heart, Mean” value turned out to be 2.22 % ID/g; the “Organ distribution, Intestine, Mean” value came out at 0.81 % ID/g. In addition, in data set [2], the “Organ distribution, Kidney, Mean” value stood at 138.18 % ID/g; the “Organ distribution, Liver, Mean” value is reported as 1.71 % ID/g; the “Organ distribution, Lung, Mean” value is 3.09 % ID/g; the “Organ distribution, Muscle, Mean” value was found to be 1.84 % ID/g. For the same compound, in data set [2], the “Organ distribution, Spleen, Mean” value is reported as 45.24 % ID/g; the “distribution profile in healthy organs” value was “comparable”; the “Organ distribution, Tumor” value is listed as 10.86±0.94 % ID/g. Besides, the “Organ distribution, Tumor” value in data set [2] (listed as Glu-urea-Lys-HBED-CC-dye) is reported as 10.86 % ID/g. The “distribution … (PET imaging)” value in data set [3] is “comparable distribution of radioactivity and tumor uptake”.

Consider `O=C(O)CCC(NC(=O)NC(CCCCNC(=O)CCCCCNC(=O)CCc1ccc(O)c(CN(CCN(CC(=O)O)Cc2cc(CCC(=O)NCCOCCOCCNC(=S)Nc3ccc4c(c3)C(=O)OC43c4ccc(O)cc4OC4C=C(O)C=CC43)ccc2O)CC(=O)O)c1)C(=O)O)C(=O)O` (centres unmarked) [PSMA-Ahx-HBED-CC-FITC], for which, in data set [5], the “tumor uptake versus Banerjee reference compounds” value was “significantly improved”.

For the compound `CN1/C(=C/C=C/C=C/C2=[N+](CCCCCC(=O)NCCOCCOCCNC(=O)CCc3ccc(O)c(CN(CCN(CC(=O)O)Cc4cc(CCC(=O)NCCCCCC(=O)NCCCCC(NC(=O)NC(CCC(=O)O)C(=O)O)C(=O)O)ccc4O)CC(=O)O)c3)c3ccc4ccccc4c3C2(C)C)C(C)(C)c2c1ccc1ccccc21` (centres unmarked) [PSMA-Ahx-HBED-CC-cyanine 5.5], in data set [3], the “distribution … (PET imaging)” value is “comparable distribution of radioactivity and tumor uptake”.
